Experimental data taken from US20260166122A1, “USE OF MICROPEPTIDE MIAC” (NANJING ANJI BIOTECHNOLOGY CO., LTD, priority 2023, published 2026).
Where two headings read alike, the source gives them in different places. Marks after values point to notes of the source that are not given here. Ends that are not written are not given here.

Columns and labels:
[1] = tested on: human osteosarcoma cells MG-63; assay type: cell-based; conditions: 72 h
Protocol: (§1) Human pancreatic cancer, hepatocellular carcinoma, colorectal cancer, ovarian cancer, cervical cancer, bladder cancer, melanoma, glioblastoma, neuroblastoma, glioma, osteosarcoma, myeloma, lymphoma, hematologic malignancies, and cholangiocarcinoma cells were cultured in an incubator at 37° C. with 5% CO2 until the density reached 90%, then digested and collected with trypsin, resuspended in a culture medium, and counted under a microscope; the cell concentration was adjusted to about 1.0×10^5 cells/mL; and the cell suspension was inoculated into a 96-well plate, with 100 μL per well, and incubated overnight in an incubator at 37° C. with 5% CO2. After the cells were completely attached to the wall, 100 μL of micropeptides MIAC with concentrations of 50 μM, 100 μM and 200 μM were added to form an administration group; and a culture medium without any medicament was used as a negative control group. After continuing incubation for 72 h, 100 μL of CCK8 was added to each well of the 96-well plate for dissolving. The absorbance OD was measured at a detection wavelength of 450 nm with a microplate reader, and the proliferation inhibition (PI) was calculated using the formula of PI (%)=1-administration group/negative control group. The experiment was repeated 3 times independently, the results were expressed as Mean±SD, and a statistical T test was performed, where *P<0.05 indicated a significant difference and **P<0.01 indicated an extremely significant difference.

[2] = tested on: human acute promyelocytic leukemia cells NB4; assay type: cell-based; conditions: 72 h
Protocol: as §1

[3] = tested on: human cholangiocarcinoma cells QBC939; assay type: cell-based; conditions: 72 h
Protocol: as §1

[4] = tested on: human pancreatic cancer cells Aspc-1; assay type: cell-based; conditions: 72 h
Protocol: as §1

[5] = tested on: human pancreatic cancer cells MIP-PaCa-2; assay type: cell-based; conditions: 72 h
Protocol: as §1

[6] = tested on: peripheral blood B lymphocytes RPMI-8226 in human multiple myeloma; assay type: cell-based; conditions: 72 h
Protocol: as §1

[7] = tested on: human neuroblastoma cells SH-SY5Y; assay type: cell-based; conditions: 72 h
Protocol: as §1

[8] = tested on: human diffuse large B-cell lymphoma cells OCI-LY10; assay type: cell-based; conditions: 72 h
Protocol: as §1

[9] = tested on: human bladder cancer cells EJ; assay type: cell-based; conditions: 72 h
Protocol: as §1

[10] = tested on: human ovarian cancer cells A2780; assay type: cell-based; conditions: 72 h
Protocol: as §1

[11] = tested on: human osteosarcoma cells U-2OS; assay type: cell-based; conditions: 72 h
Protocol: as §1

[12] = tested on: human cervical cancer cells Hela; assay type: cell-based; conditions: 72 h
Protocol: as §1

[13] = tested on: human hepatocellular carcinoma cells HepG2; assay type: cell-based; conditions: 72 h
Protocol: as §1

[14] = tested on: human acute non-T non-B lymphocytic leukemia cells Reh; assay type: cell-based; conditions: 72 h
Protocol: as §1

[15] = tested on: human myeloma cells NCI-H929; assay type: cell-based; conditions: 72 h
Protocol: as §1

[16] = tested on: human osteogenic sarcoma cells Saos-2; assay type: cell-based; conditions: 72 h
Protocol: as §1

[17] = tested on: prostate cancer Du145 cells; experiment: transwell migration inhibition, Du145; assay type: cell-based, human; conditions: 48 h
Protocol: (§2) Human prostate cancer, cervical cancer, osteosarcoma, ovarian cancer, melanoma, and hepatocellular carcinoma cells were inoculated into transwell chambers, with 100 μL per well; for an administration group, 100 μL of a micropeptide MIAC was added to each of the chambers at a different dose; and no medicament was added to a blank group. Then, 0.6 mL of a complete medium comprising 10% FBS was added to transwell lower chambers to stimulate cell migration, followed by incubation at 37° C. with 5% CO2 for 48 h. The culture medium in the wells was discarded, and the cells were fixed with methanol at room temperature for 30 min, stained with 0.1% crystal violet at room temperature for 10 min, and rinsed thoroughly with clear water; the unmigrated cells in the upper layer were wiped off with a cotton swab; and the migrated cells were observed under a microscope, and four visual fields were selected for photography and counting. The migration inhibition rate (MI) was calculated using the following formula: […]
(§3) where Ntest represents the number of migrated cells in the administration group, and Ncontrol represents the number of migrated cells in the blank control group.

[18] = tested on: ovarian cancer SKOV3 cells; experiment: transwell migration inhibition, SKOV3; assay type: cell-based, human; conditions: 48 h
Protocol: as §2, §3

With “MERAGVPGFSPRRSSVEAKMQSTSCSVRKSSTVTAWPAVVLLLSWGQRRGG [MIAC, micropeptide inhibiting actin cytoskeleton]” as the sequence, how does the OD ([1]; MG-63, 50 μM) read?
The OD was 1.049 ± 0.011**.

And the OD ([1]; MG-63, 100 μM)?
Its OD is 0.691 ± 0.033**.

And the OD ([1]; MG-63, 200 μM)?
Its OD is 0.365 ± 0.009**.

And the OD ([2]; NB4, 50 μM)?
The OD was 1.177 ± 0.042**.

What about the OD ([2]; NB4, 100 μM) of the same sequence?
Its OD is 0.826 ± 0.066**.

And the OD ([2]; NB4, 200 μM)?
Its OD is 0.624 ± 0.052**.

And the OD ([3]; QBC939, 50 μM)?
The OD was 1.13 ± 0.053.

And the OD ([3]; QBC939, 100 μM)?
Its OD is 0.757 ± 0.028**.

What about the OD ([3]; QBC939, 200 μM) of the same sequence?
The OD was 0.468 ± 0.045**.

And the OD ([4]; Aspc-1, 50 μM)?
Its OD is 0.939 ± 0.015.

And the OD ([4]; Aspc-1, 100 μM)?
Its OD is 0.711 ± 0.047**.

What about the OD ([4]; Aspc-1, 200 μM) of the same sequence?
The OD was 0.509 ± 0.019**.

And the OD ([5]; MIP-PaCa-2, 50 μM)?
The OD was 0.898 ± 0.035.

And the OD ([5]; MIP-PaCa-2, 100 μM)?
The OD was 0.866 ± 0.035**.

And the OD ([5]; MIP-PaCa-2, 200 μM)?
The OD was 0.571 ± 0.038**.

And the OD ([6]; RPMI-8226, 50 μM)?
The OD was 2.008 ± 0.023.

And the OD ([6]; RPMI-8226, 100 μM)?
The OD was 1.001 ± 0.027**.

What about the OD ([6]; RPMI-8226, 200 μM) of the same sequence?
The OD was 0.522 ± 0.028**.

And the OD ([7]; 50 μM)?
The OD was 1.033 ± 0.022.

And the OD ([7]; 100 μM)?
Its OD is 0.822 ± 0.108**.

What about the OD ([7]; 200 μM) of the same sequence?
Its OD is 0.665 ± 0.011**.

And the OD ([8]; OCI-LY10, 50 μM)?
Its OD is 0.719 ± 0.028**.

And the OD ([8]; OCI-LY10, 100 μM)?
The OD was 0.598 ± 0.033**.

What about the OD ([8]; OCI-LY10, 200 μM) of the same sequence?
The OD was 0.376 ± 0.019**.

And the OD ([9]; 50 μM)?
Its OD is 1.126 ± 0.017.

What about the OD ([9]; 100 μM) of the same sequence?
The OD was 0.891 ± 0.009**.

What about the OD ([9]; 200 μM) of the same sequence?
Its OD is 0.628 ± 0.045**.

And the OD ([10]; A2780, 50 μM)?
Its OD is 0.985 ± 0.046**.

And the OD ([10]; A2780, 100 μM)?
The OD was 0.791 ± 0.067**.

And the OD ([10]; A2780, 200 μM)?
Its OD is 0.441 ± 0.018**.

And the OD ([11]; 50 μM)?
Its OD is 0.887 ± 0.024.

And the OD ([11]; 100 μM)?
The OD was 0.596 ± 0.061**.

What about the OD ([11]; 200 μM) of the same sequence?
Its OD is 0.350 ± 0.013**.

What about the OD ([12]; 50 μM) of the same sequence?
Its OD is 0.954 ± 0.041**.

And the OD ([12]; 100 μM)?
The OD was 0.801 ± 0.039**.

What about the OD ([12]; 200 μM) of the same sequence?
Its OD is 0.532 ± 0.066**.

What about the OD ([13]; HepG2, 50 μM) of the same sequence?
The OD was 0.575 ± 0.047**.

What about the OD ([13]; HepG2, 100 μM) of the same sequence?
Its OD is 0.267 ± 0.022**.

And the OD ([13]; HepG2, 200 μM)?
The OD was 0.169 ± 0.015**.

What about the OD ([14]; 50 μM) of the same sequence?
Its OD is 0.964 ± 0.037.

What about the OD ([14]; 100 μM) of the same sequence?
Its OD is 0.687 ± 0.019**.

And the OD ([14]; 200 μM)?
The OD was 0.421 ± 0.029**.

What about the OD ([15]; NCI-H929, 50 μM) of the same sequence?
Its OD is 0.860 ± 0.012**.

And the OD ([15]; NCI-H929, 100 μM)?
The OD was 0.427 ± 0.016**.

And the OD ([15]; NCI-H929, 200 μM)?
Its OD is 0.263 ± 0.026**.

And the OD ([16]; Saos-2, 50 μM)?
The OD was 1.198 ± 0.067.

And the OD ([16]; Saos-2, 100 μM)?
The OD was 0.946 ± 0.016**.

What about the OD ([16]; Saos-2, 200 μM) of the same sequence?
Its OD is 0.627 ± 0.052**.

And the “Inhibition rate (%)” value ([17]; Du145, 3.125 μmol/L)?
The value was 39.23%.

What about the “Number of migrated cells” value ([17]; Du145, 3.125 μmol/L) of the same sequence?
Its value is 349.3 ± 98.5.

What about the “Inhibition rate (%)” value ([17]; Du145, 6.25 μmol/L) of the same sequence?
Its value is 69.77%.

And the “Number of migrated cells” value ([17]; Du145, 6.25 μmol/L)?
The value was 173.8 ± 48.8.

And the “Inhibition rate (%)” value ([17]; Du145, 12.5 μmol/L)?
Its value is 82.51%.

And the “Number of migrated cells” value ([17]; Du145, 12.5 μmol/L)?
The value was 100.5 ± 11.8.

And the “Inhibition rate (%)” value ([17]; Du145, 25 μmol/L)?
The value was 91.87%.

And the “Number of migrated cells” value ([17]; Du145, 25 μmol/L)?
The value was 46.8 ± 8.5.

What about the “Inhibition rate (%)” value ([17]; Du145, 50 μmol/L) of the same sequence?
Its value is 94.56%.

What about the “Number of migrated cells” value ([17]; Du145, 50 μmol/L) of the same sequence?
Its value is 31.3 ± 8.4.

What about the “Inhibition rate (%)” value ([18]; SKOV3, 12.5 μmol/L) of the same sequence?
Its value is 17.17%.

What about the “Number of migrated cells” value ([18]; SKOV3, 12.5 μmol/L) of the same sequence?
Its value is 907.3 ± 46.5.

And the “Inhibition rate (%)” value ([18]; SKOV3, 25 μmol/L)?
Its value is 52.28%.

And the “Number of migrated cells” value ([18]; SKOV3, 25 μmol/L)?
Its value is 523.8 ± 35.3.

And the “Inhibition rate (%)” value ([18]; SKOV3, 50 μmol/L)?
The value was 62.04%.

What about the “Number of migrated cells” value ([18]; SKOV3, 50 μmol/L) of the same sequence?
Its value is 415.8 ± 21.7.
